From ChEMBL document CHEMBL1201862, “PubChem BioAssay data set” (2004)
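Cultured in 96-well plates, cells were exposed to test compound for 48 hours across five concentrations. At the GI50, growth is halved.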 Activity calls are given as the source filed them. Rule as the data show it: active = GI50 up to about 1.1 µM and inactive = higher.

Legend:
Assay in all cases: NCI anticancer screen, dose series, 48 h
[1] = test system: 786-0
[2] = test system: A549
[3] = test system: ACHN
[4] = test system: CAKI-1
[5] = test system: COLO 205
[6] = test system: HT-29
[7] = test system: IGROV-1
[8] = test system: MCF7
[9] = test system: MDA-MB-231
[10] = test system: MOLT-4
[11] = test system: NCI/ADR-RES
[12] = test system: OVCAR-3
[13] = test system: OVCAR-5
[14] = test system: RPMI-8226
[15] = test system: SK-MEL-28
[16] = test system: SK-MEL-2
[17] = test system: SN12C
[18] = test system: T47D
[19] = test system: TK-10
[20] = test system: UO-31

Row | Structure (SMILES) | GI50 [1] | GI50 [2] | GI50 [3] | GI50 [4] | GI50 [5] | GI50 [6] | GI50 [7] | GI50 [8] | GI50 [9] | GI50 [10] | GI50 [11] | GI50 [12] | GI50 [13] | GI50 [14] | GI50 [15] | GI50 [16] | GI50 [17] | GI50 [18] | GI50 [19] | GI50 [20]
1 | CN(CCCNC(=O)c1c2ccc3ccccc3c2nn1C)CCCNC(=O)c1c2ccc3ccccc3c2nn1C | 11.6 µM (inactive) | 12.4 µM (inactive) | 11.5 µM (inactive) | 1.6 µM (inactive) | 1.81 µM (inactive) | 2.53 µM (inactive) | 8.79 µM (inactive) | 3.94 µM (inactive) | 10.5 µM (inactive) | 4.85 µM (inactive) | 13.6 µM (inactive) | 16 µM (inactive) | 11.5 µM (inactive) | 1.95 µM (inactive) | 2.3 µM (inactive) | 5.04 µM (inactive) | 12.4 µM (inactive) | 7.62 µM (inactive) | 2.67 µM (inactive) | 6.47 µM (inactive)
2 | CC1(C)CC(=O)c2c(-c3ccc(Cl)cc3)c(C#N)c(=S)n(C3OC(CO)C(O)C(O)C3O)c2C1 (stereo not given) | 27.5 µM (inactive) | 36.1 µM (inactive) | 39 µM (inactive) | 78.7 µM (inactive) | 34 µM (inactive) | 26.7 µM (inactive) | 56.8 µM (inactive) | 33.7 µM (inactive) | 33.5 µM (inactive) | 25 µM (inactive) | 34.4 µM (inactive) | 30.9 µM (inactive) | > 100 µM (inactive) | 22.5 µM (inactive) | 34.8 µM (inactive) | 19 µM (inactive) | 31.7 µM (inactive) | 18.6 µM (inactive) | 53.3 µM (inactive) | 29.6 µM (inactive)
3 | Cc1ncc(COP(=O)(O)O)c(/C=C2\SC(=S)NC2=O)c1O | > 100 µM (inactive) | > 100 µM (inactive) | > 100 µM (inactive) | > 100 µM (inactive) | > 100 µM (inactive) | > 100 µM (inactive) | > 100 µM (inactive) | > 100 µM (inactive) | > 100 µM (inactive) | > 100 µM (inactive) | > 100 µM (inactive) | > 100 µM (inactive) | > 100 µM (inactive) | > 100 µM (inactive) | > 100 µM (inactive) | > 100 µM (inactive) | > 100 µM (inactive) | > 100 µM (inactive) | > 100 µM (inactive) | > 100 µM (inactive)
4 | Nc1nc(N)c(N=Nc2ccc([As](=O)(O)O)c(O)c2)c(N)n1 | 20 µM (inactive) | > 82.4 µM (inactive) | 49 µM (inactive) | 58.3 µM (inactive) | 22 µM (inactive) | 3.75 µM (inactive) | 4.61 µM (inactive) | 3.75 µM (inactive) | > 54.2 µM (inactive) | 3.63 µM (inactive) | > 100 µM (inactive) | 3.61 µM (inactive) | > 100 µM (inactive) | 3.21 µM (inactive) | > 100 µM (inactive) | > 21.1 µM (inactive) | 12.1 µM (inactive) | > 25.2 µM (inactive) | 16.8 µM (inactive) | > 88.9 µM (inactive)
5 | N#CC1=C(N)OC2=C(CCCc3ccccc32)C1c1ccc([N+](=O)[O-])cc1 (stereo not given) | 18.1 µM (inactive) | 19 µM (inactive) | 17.9 µM (inactive) | 29.6 µM (inactive) | 16.1 µM (inactive) | 12.2 µM (inactive) | 19.2 µM (inactive) | 16.7 µM (inactive) | 26.9 µM (inactive) | 0.336 µM (active) | 11.9 µM (inactive) | 13.5 µM (inactive) | 21.8 µM (inactive) | 1.85 µM (inactive) | 15.8 µM (inactive) | 17.9 µM (inactive) | 15.1 µM (inactive) | 8.18 µM (inactive) | 28.8 µM (inactive) | 11.8 µM (inactive)
6 | COC12C=CC(C=C1C#N)CC2.COC12C=CC(CC1)CC2=O (stereo not given) | > 100 µM (inactive) | > 100 µM (inactive) | > 100 µM (inactive) | > 100 µM (inactive) | > 100 µM (inactive) | > 100 µM (inactive) | > 100 µM (inactive) | > 100 µM (inactive) | > 100 µM (inactive) | > 100 µM (inactive) | > 100 µM (inactive) | > 100 µM (inactive) | > 100 µM (inactive) | > 100 µM (inactive) | > 100 µM (inactive) | > 100 µM (inactive) | > 100 µM (inactive) | > 100 µM (inactive) | > 100 µM (inactive) | > 100 µM (inactive)
7 | CC(C)[Si]1(C(C)C)OCC2OC(n3cnc4c(N)ncnc43)C(N)C2O[Si](C(C)C)(C(C)C)O1 (stereo not given) | 5.11 µM (inactive) | 5.58 µM (inactive) | 3.44 µM (inactive) | 11 µM (inactive) | 5.68 µM (inactive) | 4.6 µM (inactive) | 7.33 µM (inactive) | 2.55 µM (inactive) | 13.7 µM (inactive) | 2.08 µM (inactive) | 5.21 µM (inactive) | 5.22 µM (inactive) | 16.8 µM (inactive) | 2.22 µM (inactive) | 25.9 µM (inactive) | 6.22 µM (inactive) | 10.1 µM (inactive) | 8.15 µM (inactive) | 10.1 µM (inactive) | 3.47 µM (inactive)
8 | O=C1N2CCC[C@H]2CS1(=O)=O | 11.1 µM (inactive) | 22.8 µM (inactive) | 15.2 µM (inactive) | 5.73 µM (inactive) | 12.2 µM (inactive) | 28.5 µM (inactive) | 15.5 µM (inactive) | 6.73 µM (inactive) | 15.4 µM (inactive) | 3.34 µM (inactive) | 30 µM (inactive) | 15.8 µM (inactive) | 36.9 µM (inactive) | 2.77 µM (inactive) | 18.4 µM (inactive) | 17.6 µM (inactive) | 15.7 µM (inactive) | 13.5 µM (inactive) | 18.2 µM (inactive) | 14.5 µM (inactive)
9 | OCCCCn1cc(Cn2ncc3c(NCc4ccccc4)ncnc32)nn1 | > 100 µM (inactive) | > 100 µM (inactive) | > 100 µM (inactive) | > 100 µM (inactive) | > 100 µM (inactive) | > 100 µM (inactive) | > 100 µM (inactive) | > 100 µM (inactive) | > 100 µM (inactive) | 53.1 µM (inactive) | > 100 µM (inactive) | > 100 µM (inactive) | > 100 µM (inactive) | > 100 µM (inactive) | > 100 µM (inactive) | > 100 µM (inactive) | > 100 µM (inactive) | 66.1 µM (inactive) | > 100 µM (inactive) | > 100 µM (inactive)
10 | C#CCn1ncc2c(SC)ncnc21 | > 100 µM (inactive) | > 100 µM (inactive) | > 100 µM (inactive) | > 100 µM (inactive) | > 100 µM (inactive) | > 100 µM (inactive) | > 100 µM (inactive) | > 100 µM (inactive) | > 100 µM (inactive) | > 100 µM (inactive) | > 100 µM (inactive) | > 100 µM (inactive) | > 100 µM (inactive) | > 100 µM (inactive) | > 100 µM (inactive) | > 100 µM (inactive) | > 100 µM (inactive) | 19 µM (inactive) | > 100 µM (inactive) | > 100 µM (inactive)
11 | Cc1c(C(C)C)cc(OCCO)cc1C(C)C | 24.4 µM (inactive) | 38.3 µM (inactive) | 51.4 µM (inactive) | 70.6 µM (inactive) | 34.8 µM (inactive) | 26.6 µM (inactive) | 58.3 µM (inactive) | 33 µM (inactive) | 32.9 µM (inactive) | 34.1 µM (inactive) | 40 µM (inactive) | 47.5 µM (inactive) | 66.4 µM (inactive) | 25.2 µM (inactive) | 87.9 µM (inactive) | 23.9 µM (inactive) | 30.2 µM (inactive) | 26.9 µM (inactive) | > 100 µM (inactive) | 67.1 µM (inactive)
12 | Cc1cn(C2CC(N=[N+]=[N-])C(CO)O2)c(=O)n(CCCCO)c1=O (stereo not given) | > 100 µM (inactive) | > 100 µM (inactive) | > 100 µM (inactive) | > 100 µM (inactive) | > 100 µM (inactive) | > 100 µM (inactive) | > 100 µM (inactive) | > 100 µM (inactive) | > 100 µM (inactive) | > 100 µM (inactive) | > 100 µM (inactive) | > 100 µM (inactive) | > 100 µM (inactive) | > 100 µM (inactive) | > 100 µM (inactive) | > 100 µM (inactive) | > 100 µM (inactive) | > 100 µM (inactive) | > 100 µM (inactive) | > 100 µM (inactive)
13 | Cc1ccc(S(=O)(=O)OC2C3OC(C)(C)OC3OC2C(c2cc(O)c3c(c2O)C(=O)c2ccccc2C3=O)c2cc(O)c3c(c2O)C(=O)c2ccccc2C3=O)cc1 (stereo not given) | > 10 µM (inactive) | > 10 µM (inactive) | > 10 µM (inactive) | > 10 µM (inactive) | > 10 µM (inactive) | > 10 µM (inactive) | > 10 µM (inactive) | > 10 µM (inactive) | > 10 µM (inactive) | > 10 µM (inactive) | > 10 µM (inactive) | > 10 µM (inactive) | > 10 µM (inactive) | > 10 µM (inactive) | > 10 µM (inactive) | > 10 µM (inactive) | > 10 µM (inactive) | > 10 µM (inactive) | > 10 µM (inactive) | > 10 µM (inactive)
14 | COc1ccc(/C=C/C(=O)/C=C/c2ccc(OC)cc2OC)c(OC)c1 | 5.81 µM (inactive) | 14.4 µM (inactive) | 6.61 µM (inactive) | 5.35 µM (inactive) | 5.61 µM (inactive) | 2.64 µM (inactive) | 10.1 µM (inactive) | 2.4 µM (inactive) | 29.9 µM (inactive) | 4.8 µM (inactive) | 8.02 µM (inactive) | 2.76 µM (inactive) | 4.01 µM (inactive) | 3.71 µM (inactive) | 4.83 µM (inactive) | 1.33 µM (inactive) | 18.6 µM (inactive) | 4.47 µM (inactive) | 14.5 µM (inactive) | 13.6 µM (inactive)
